Assay results published in patent US4710564A, “Anthracycline compounds” (Microbial Chemistry Research Foundation, priority 1985, dated 1987).
Values after ≈ are worked out from the molar mass of the structure shown. Read-outs that look alike come from different tables or passages of the source.

Legend:
P 388 leukemia [1] = assay: animal or person; format: in vivo, CDF1 mice; conditions: for ED (T/C 130%): Mus musculus, P388, po, read-out: Dose for T/C = 130%
P 388 leukemia [2] = assay: animal or person; format: in vivo, CDF1 mice; conditions: for ED (T/C 130%): Mus musculus, P388, iv, read-out: Dose for T/C = 130%
in vivo = conditions: mouse, iv
P388 leukemia = assay: Antitumor activity against P388 leukemia in mice, i.p. administration (T/C, therapeutic index); format: in vivo, CDF1 mice; conditions: for ED (T/C 130%): Mus musculus, P388, ip, read-out: Dose for T/C = 130 %
[3] = test system: Adriamycin-resistant P 388 leukemia cells (P 388/ADR); assay: cells; format: cell-based; conditions: for IC50: Mus musculus, P388, 48 h, read-out: IC50 P388/ADR; for R/S: mouse, 2880 min
Lewis lung carcinoma = assay: Tumor growth inhibition against solid tumors (Lewis lung carcinoma); conditions: for Tumor growth inhibition: i.v., days 1, 5 and 9, day 13
P 388 leukemia [4] = conditions: known from the art; cited from earlier work
[5] = comp. data from Japanese Patent Application Laid-Open Pub. No. 76896/1980; cited from earlier work
[6] = mouse, in vivo, po, 1 mg/kg/day
[7] = mouse, in vivo, po, 2 mg/kg/day
[8] = mouse, in vivo, po, 4 mg/kg/day
[9] = mouse, in vivo, iv, 1 mg/kg/day
[10] = mouse, in vivo, iv, 2 mg/kg/day
[11] = mouse, in vivo, iv, 4 mg/kg/day
[12] = mouse, in vivo, iv, 8 mg/kg/day
[13] = mouse, in vivo, ip, 0.5 mg/kg/day
[14] = mouse, in vivo, ip, 1 mg/kg/day
[15] = mouse, in vivo, ip, 2 mg/kg/day
[16] = mouse, in vivo, ip, 4 mg/kg/day
[17] = mouse, in vivo, po, 8 mg/kg/day
[18] = mouse, in vivo, po, 16 mg/kg/day
[19] = mouse, in vivo, ip, 8 mg/kg/day
[20] = mouse, in vivo, ip, 12 mg/kg/day
[21] = mouse, in vivo, po, 32 mg/kg/day
[22] = mouse, in vivo, iv, 16 mg/kg/day
[23] = mouse, in vivo, iv, 32 mg/kg/day
[24] = mouse, in vivo, ip, 16 mg/kg/day

Question: For `CCC1(O)CC(OC2CC(N3CCOCC3)C(O)C(C)O2)c2c(O)c3c(c(O)c2C1O)C(=O)c1cccc(O)c1C3=O` (stereo not shown) [3'-deamino-3'-(4-morpholinyl)-R20X2], which ED (T/C 130%) (P 388 leukemia [1]) is on record?
Answer: 0.58 mg/kg/day

Question: What about the Therapeutic index (P 388 leukemia [1]; mouse, in vivo, po) of the same compound?
Answer: 3.4

Question: What about the T/C (P 388 leukemia [1]; mouse, in vivo, po, 0.25 mg/kg/day) of the same compound?
Answer: 109

Question: What about the T/C (P 388 leukemia [1]; mouse, in vivo, po, 0.5 mg/kg/day) of the same compound?
Answer: 120

Question: What about the T/C (P 388 leukemia [1]; [6]) of the same compound?
Answer: 164

Question: And the T/C (P 388 leukemia [1]; [7])?
Answer: 228

Question: And the T/C (P 388 leukemia [1]; [8])?
Answer: 103

Question: And the ED (T/C 130%) (P 388 leukemia [2])?
Answer: 0.43 mg/kg/day

Question: What about the Therapeutic index (P 388 leukemia [2]; mouse, in vivo, iv) of the same compound?
Answer: 4.7

Question: What about the T/C (P 388 leukemia [2]; mouse, in vivo, iv, 0.25 mg/kg/day) of the same compound?
Answer: 109

Question: What about the T/C (P 388 leukemia [2]; mouse, in vivo, iv, 0.5 mg/kg/day) of the same compound?
Answer: 136

Question: And the T/C (P 388 leukemia [2]; [9])?
Answer: 154

Question: What about the T/C (P 388 leukemia [2]; [10]) of the same compound?
Answer: 204

Question: What about the T/C (P 388 leukemia [2]; [11]) of the same compound?
Answer: 194

Question: What about the T/C (P 388 leukemia [2]; [12]) of the same compound?
Answer: 35

Question: What about the “Solubility: insoluble” value (Solubility; insoluble in) of the same compound?
Answer: insoluble in water, hexane, cyclohexane, diethyl ether, and petroleum ether

Question: What about the “Solubility: soluble” value (Solubility; soluble in) of the same compound?
Answer: Soluble in acidic water, basic water, methanol, ethanol, propanol, acetone, ethyl acetate, and chloroform

Question: What about the LD50 (in vivo) of the same compound?
Answer: 3.55 mg/kg

Question: What about the “toxicity to the heart at dosage level of maximum antitumor activity” value (heart; dosage level T/C=max) of the same compound?
Answer: not found to be toxic

Question: And the ED (T/C 130%) (P388 leukemia)?
Answer: 0.35 mg/kg/day

Question: What about the Therapeutic index (P388 leukemia; mouse, in vivo, ip) of the same compound?
Answer: 5.7

Question: What about the T/C (P388 leukemia; mouse, in vivo, ip, 0.25 mg/kg/day) of the same compound?
Answer: 112

Question: What about the T/C (P388 leukemia; [13]) of the same compound?
Answer: 150

Question: What about the T/C (P388 leukemia; [14]) of the same compound?
Answer: 186

Question: And the T/C (P388 leukemia; [15])?
Answer: > 246

Question: What about the T/C (P388 leukemia; [16]) of the same compound?
Answer: > 158

Question: What about the IC50 [3] of the same compound?
Answer: 0.011 µg/mL (≈ 0.0188 µM)

Question: What about the R/S [3] of the same compound?
Answer: 1.22

Question: With `CCC1(O)Cc2c(O)c3c(c(O)c2C(OC2CC(N4CCOCC4)C(O)C(C)O2)C1)C(=O)c1c(O)cccc1C3=O` (stereo not shown) [3'-deamino-3'-(4-morpholinyl)-R20X] as the compound, how does the ED (T/C 130%) (P 388 leukemia [1]) read?
Answer: 1.45 mg/kg/day

Question: And the T/C (P 388 leukemia [1]; [6])?
Answer: 111

Question: And the T/C (P 388 leukemia [1]; [7])?
Answer: 146

Question: And the T/C (P 388 leukemia [1]; [8])?
Answer: 170

Question: And the T/C (P 388 leukemia [1]; [17])?
Answer: 214

Question: And the T/C (P 388 leukemia [1]; [18])?
Answer: 219

Question: And the ED (T/C 130%) (P 388 leukemia [2])?
Answer: 2.5 mg/kg/day

Question: What about the T/C (P 388 leukemia [2]; [9]) of the same compound?
Answer: 104

Question: And the T/C (P 388 leukemia [2]; [10])?
Answer: 119

Question: What about the T/C (P 388 leukemia [2]; [11]) of the same compound?
Answer: 155

Question: And the T/C (P 388 leukemia [2]; [12])?
Answer: 151

Question: What about the T/C (P 388 leukemia [2]; mouse, in vivo, iv, 12 mg/kg/day) of the same compound?
Answer: 57

Question: What about the LD50 (in vivo) of the same compound?
Answer: 12.3 mg/kg

Question: What about the “toxicity to the heart at dosage level of maximum antitumor activity” value (heart; hamster, in vivo) of the same compound?
Answer: not found to be toxic

Question: What about the ED (T/C 130%) (P388 leukemia) of the same compound?
Answer: 0.75 mg/kg/day

Question: What about the T/C (P388 leukemia; [13]) of the same compound?
Answer: 104

Question: What about the T/C (P388 leukemia; [14]) of the same compound?
Answer: 148

Question: What about the T/C (P388 leukemia; [15]) of the same compound?
Answer: 177

Question: And the T/C (P388 leukemia; [16])?
Answer: 218

Question: And the T/C (P388 leukemia; [19])?
Answer: > 303

Question: And the T/C (P388 leukemia; [20])?
Answer: 231

Question: What does the source list for `CCC1(O)Cc2cc3c(c(O)c2C(OC2CC(N4CCOCC4)C(O)C(C)O2)C1)C(=O)c1c(O)cccc1C3=O` (stereo not shown) [3'-deamino-3'-(4-morpholinyl)-R20Y5]?
Answer: ED (T/C 130%) (P 388 leukemia [1]): 4.3 mg/kg/day; T/C (P 388 leukemia [1]; [8]): 127; T/C (P 388 leukemia [1]; [17]): 154; T/C (P 388 leukemia [1]; [18]): 191; T/C (P 388 leukemia [1]; [21]): 263; T/C (P 388 leukemia [1]; mouse, in vivo, po, 64 mg/kg/day): 238; antitumor activity against solid tumors (in words) (Lewis lung carcinoma; Lewis lung carcinoma): antitumor activity comparable to or better than that of Adriamycin against solid tumors; Tumor growth inhibition (Lewis lung carcinoma; 4 mg/kg/day): 9.6%; Tumor growth inhibition (Lewis lung carcinoma; 8 mg/kg/day): 31.0%; Tumor growth inhibition (Lewis lung carcinoma; 16 mg/kg/day): 66.6%; Tumor growth inhibition (Lewis lung carcinoma; 32 mg/kg/day): 91.7%; ED (T/C 130%) (P 388 leukemia [2]): 4.9 mg/kg/day; T/C (P 388 leukemia [2]; [10]): 104; T/C (P 388 leukemia [2]; [11]): 123; T/C (P 388 leukemia [2]; [12]): 148; T/C (P 388 leukemia [2]; [22]): 182; T/C (P 388 leukemia [2]; [23]): > 240; LD50 (in vivo): 65 mg/kg; ED (T/C 130%) (P388 leukemia): 6.2 mg/kg/day; antitumor activity compared with R20Y5 (in words) (P388 leukemia; comparison with R20Y5 of Japanese Laid-Open 76896/1980): antitumor activity of R20Y5 can be remarkably increased by 3'-deamino-3'-4-morpholinylation; T/C (P388 leukemia; [16]): 104; T/C (P388 leukemia; [19]): 146; T/C (P388 leukemia; [24]): 175; T/C (P388 leukemia; mouse, in vivo, ip, 32 mg/kg/day): 219; T/C (P388 leukemia; mouse, in vivo, ip, 64 mg/kg/day): 93

Question: What does the source list for `CC[C@@]1(O)C[C@H](O[C@H]2C[C@H](N(C)C)[C@H](O[C@H]3C[C@H](O)[C@H](O[C@H]4CCC(=O)[C@H](C)O4)[C@H](C)O3)[C@H](C)O2)c2c(cc3c(c2O)C(=O)c2c(O)cccc2C3=O)[C@H]1C(=O)OC` [Aclacinomycin, reference compound]?
Answer: Dose for T/C = 130% (P 388 leukemia [1]; mouse, in vivo, po): 15 mg/kg/day; Therapeutic index (P 388 leukemia [1]; mouse, in vivo, po): 2.1; T/C (P 388 leukemia [1]; [17]): 119; T/C (P 388 leukemia [1]; [18]): 131; T/C (P 388 leukemia [1]; [21]): 154; Dose for T/C = 130% (P 388 leukemia [2]; mouse, in vivo, iv): 12.4 mg/kg/day; Therapeutic index (P 388 leukemia [2]; mouse, in vivo, iv): 2.6; T/C (P 388 leukemia [2]; [11]): 121; T/C (P 388 leukemia [2]; [12]): 119; T/C (P 388 leukemia [2]; [22]): 151; T/C (P 388 leukemia [2]; [23]): 177; T/C (P 388 leukemia [2]; mouse, in vivo, iv, 64 mg/kg/day): 35; effectiveness by oral administration (in words) (P 388 leukemia [4]): effective in the case of oral administration; Dose for T/C = 130% (P388 leukemia; mouse, in vivo, ip): 4.4 mg/kg/day; Therapeutic index (P388 leukemia; mouse, in vivo, ip): 3.6; T/C (P388 leukemia; [15]): 111; T/C (P388 leukemia; [16]): 126; T/C (P388 leukemia; [19]): 155; T/C (P388 leukemia; [24]): 182; IC50 P388/ADR [3]: 0.025 µg/mL (≈ 0.0308 µM); R/S [3]: 1.92

Question: What does the source list for `COc1cccc2c1C(=O)c1c(O)c3c(c(O)c1C2=O)C[C@@](O)(C(=O)CO)C[C@@H]3O[C@H]1C[C@H](N)[C@H](O)[C@H](C)O1` [Adriamycin, reference compound]?
Answer: Tumor growth inhibition (Lewis lung carcinoma; 1 mg/kg/day): 34.5%; Tumor growth inhibition (Lewis lung carcinoma; 2 mg/kg/day): 14.1%; Tumor growth inhibition (Lewis lung carcinoma; 4 mg/kg/day): 64.2%; Tumor growth inhibition (Lewis lung carcinoma; 8 mg/kg/day): 72.8%; ED (T/C 130%) (P388 leukemia): < 0.25 mg/kg/day; T/C (P388 leukemia; [13]): 177; T/C (P388 leukemia; [14]): 191; T/C (P388 leukemia; [15]): > 217; T/C (P388 leukemia; [16]): 204; T/C (P388 leukemia; [19]): > 256; T/C (P388 leukemia; [20]): 194; IC50 [3]: 0.35 µg/mL (≈ 0.644 µM); R/S [3]: 29.2

Question: For `CCC1(O)Cc2cc3c(c(O)c2C(OC2CC(N)C(O)C(C)O2)C1)C(=O)c1c(O)cccc1C3=O` (stereo not shown) [R20Y5, 11-deoxy-13-deoxocarminomycin], which LD50 [5] is on record?
Answer: 15 mg/kg
